Measured values: BindingDB's records for doi:10.1021/acschembio.7b00385 (Novartis Pharma, 2017)

Key:
Test in all cases: Liquid growth assay
Conditions in all cases: 30 °C
Actin [R335K] = Actin [R335K] (Saccharomyces cerevisiae (strain ATCC 204508 / S288c), UniProt P60010, R335K)
Method: (§1) Saturated ACT1 wild type (WT) as well as engineered ACT1 R183K (R183K) and ACT1 R335K (R335K) cultures were adjusted to 10 OD600 and 3 uL of serial 1:3 dilutions spotted on YPD agar supplemented with indicated concentrations of Chivosazole F. Growth was scored after 3 days incubation at 30 °C.

Actin [R183K] = Actin [R183K] (Saccharomyces cerevisiae (strain ATCC 204508 / S288c), UniProt P60010, R183K)
Method: as §1

Actin = Actin (Saccharomyces cerevisiae (strain ATCC 204508 / S288c), UniProt P60010)
Method: as §1

Row | Structure (SMILES) | IC50 (Actin [R335K]) [nM] | IC50 (Actin [R183K]) [nM] | IC50 (Actin) [nM]
1 | C/C1=C\[C@@H](C)[C@@H](C)OC(=O)C[C@H](c2ccc(O)cc2)NC(=O)[C@@H](Cc2c[nH]c3ccccc23)N(C)C(=O)[C@H](C)NC(=O)[C@@H](C)C1 [CHEBI:84382] | 15100 | 11900 | 16700
2 | C/C1=C/C(=O)O[C@@H]2C[C@@H](CC[C@H](C)/C=C\C=C\CC1)O[C@@](O)([C@@H]1CSC(=O)N1)C2 [LAT-A] | 40 | 110 | 70
3 | COC1CC(O)/C=C/C=C/C=C\C(C)C(C(C)C(O)CC(C)O)OC(=O)\C=C/C=C/C=C\C(C)=C\C(C)C(O)/C=C\C=C\c2coc(n2)C1C (centres undefined) [SCHEMBL1889389] | 270 | 380 | 140
